Measurements taken from paper PMC4749975, “Selective binding modes and allosteric inhibitory effects of lupane triterpenes on protein tyrosine phosphatase 1B” (Scientific Reports, 2016).
pIC50, pKi: −log10 of the molar value. “Also recorded” adds a separate entry of the source. Like-named read-outs stand apart in the source and are kept apart here.

Legend:
[1] = target: T1, recombinant human TCPTP protein (Homo sapiens, UniProt P17706); assay: Inhibiting TCPTP by pNPP phosphatase assay; assay type: biochemical; details: for Fold changes (TCPTP IC50 / PTP1B IC50): PTP1B IC50 from literature, TCPTP IC50 measured
T1 construct: purchased Abcam Inc (Cambridge, MA) ab42575
T1 sequence (P17706 1-415): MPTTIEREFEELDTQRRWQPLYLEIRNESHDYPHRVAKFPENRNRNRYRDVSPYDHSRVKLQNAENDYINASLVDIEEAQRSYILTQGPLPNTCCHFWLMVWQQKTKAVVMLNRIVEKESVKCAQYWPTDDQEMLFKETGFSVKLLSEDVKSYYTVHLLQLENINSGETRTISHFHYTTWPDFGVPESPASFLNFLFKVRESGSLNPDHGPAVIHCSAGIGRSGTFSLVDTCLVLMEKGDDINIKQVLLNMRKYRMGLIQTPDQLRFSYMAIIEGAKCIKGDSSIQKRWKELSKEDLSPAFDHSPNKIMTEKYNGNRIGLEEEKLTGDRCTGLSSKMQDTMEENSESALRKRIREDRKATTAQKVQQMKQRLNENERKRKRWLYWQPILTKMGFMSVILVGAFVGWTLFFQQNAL

[2] = target: T2, PTP1B (Homo sapiens, UniProt P18031); assay: PTP1B inhibition kinetics assay (Lineweaver-Burk, pNPP); assay type: biochemical; details: Lineweaver-Burk plot; for mode of inhibition of PTP1B: 6 pNPP and 4 compound concentrations
T2 sequence (P18031 1-435): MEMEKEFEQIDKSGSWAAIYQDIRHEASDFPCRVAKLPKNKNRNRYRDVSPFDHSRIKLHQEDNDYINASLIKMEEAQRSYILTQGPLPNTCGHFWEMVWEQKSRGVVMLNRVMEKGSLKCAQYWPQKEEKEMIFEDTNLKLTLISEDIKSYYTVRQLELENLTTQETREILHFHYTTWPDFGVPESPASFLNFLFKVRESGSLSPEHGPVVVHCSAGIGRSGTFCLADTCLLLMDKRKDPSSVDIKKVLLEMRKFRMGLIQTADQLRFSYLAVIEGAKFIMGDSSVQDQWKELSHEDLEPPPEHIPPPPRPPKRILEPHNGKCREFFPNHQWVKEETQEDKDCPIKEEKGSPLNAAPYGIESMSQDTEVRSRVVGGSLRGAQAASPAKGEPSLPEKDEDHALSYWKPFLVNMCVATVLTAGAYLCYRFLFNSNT
Procedure: The Lupeol group was used as a control group. The absorbance at 405 nm was detected by a spectraMAX 384 microplate spectrophotometer twice every minute for a total of 15 min. Michaelis-Menten constant (Km) and maximum velocity (Vmax) of PTP1B were determined via Lineweaver-Burk plots using the GraphPad Prism 5 program (GraphPad Software Inc, La Jolla, CA).

[3] = target: T2, PTP1B; assay: Estimation of Ki and binding free energy from experimental IC50 (IC50-to-Ki converter)
[4] = target: T2, PTP1B; details: cited from earlier work; for pIC50: read-out: IC50 PTP1B
[5] = target: T3, PTP1B (Mus musculus, UniProt P35821); assay: Immunoprecipitation assay of PTP1B activity in TNFα-treated mHypoE-46 neurons; assay type: cell-based
T3 construct: endogenous in cells; host or cells: mHypoE-46 mouse hypothalamic neurons
T3 sequence (P35821 1-432): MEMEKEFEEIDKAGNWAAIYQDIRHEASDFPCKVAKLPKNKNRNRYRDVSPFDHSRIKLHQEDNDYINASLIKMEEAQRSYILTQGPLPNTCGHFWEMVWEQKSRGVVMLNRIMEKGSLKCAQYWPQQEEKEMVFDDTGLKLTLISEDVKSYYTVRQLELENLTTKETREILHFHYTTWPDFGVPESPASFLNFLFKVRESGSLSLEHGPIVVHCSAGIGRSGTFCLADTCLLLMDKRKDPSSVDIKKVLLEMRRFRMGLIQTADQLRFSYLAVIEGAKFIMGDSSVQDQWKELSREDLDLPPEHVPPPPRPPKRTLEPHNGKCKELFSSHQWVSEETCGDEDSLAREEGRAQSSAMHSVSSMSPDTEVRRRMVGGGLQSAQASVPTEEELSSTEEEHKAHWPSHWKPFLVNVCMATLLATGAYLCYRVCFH
Procedure: (§1) Mouse hypothalamic cell line (mHypoE-46) neurons were grown in monolayer in Dulbecco’s modified Eagle medium (DMEM) (Sigma D5796, Castle Hill, NSW) with 10% fetal bovine serum (FBS) (SAFC Biosciences Inc, Lenexa, KS) and 1% penicillin/streptomycin. They were maintained at 37 °C with 5% CO2. Prior to treatment, the cell culture medium was replaced with DMEM containing 1% penicillin/streptomycin for 4 h. Murine TNFα was obtained from Sigma-Aldrich (Castle Hill, NSW). Lupeol and betulinic acid were dissolved in Dimethyl sulfoxide (DMSO), then diluted in sterile water, and mixed with serum free cell culture medium. The DMSO concentration was controlled below 0.15%.
Based on the instructions of the Pierce Classic IP Kit (#26146, Thermo Fisher Scientific Inc, IL) with minor modifications, PTP1B was immunoprecipitated using the 25 μg PTP1B antibody (sc-1718, Santa Cruz Biotechnology Inc, Dallas, TX) for 12 h at 4 °C. Immune complexes were isolated by adding the protein G-agarose, washed three times in the phosphatase assay buffer from the EnzoLyte Colorimetric pNPP Protein Phosphatase Assay kit (Anaspec, San Jose, CA), and resuspended in the same buffer. Samples were analysed for the phosphatase activity using the same pNPP assay kit mentioned above.

[6] = tested on: PTP1B; assay: Western blot of PTP1B protein expression in mHypoE-46 neurons; assay type: cell-based, Mouse; details: for PTP1B protein expression: 10 h after TNFα 8 h
Procedure: as §1
The method was described in our previous study with modifications, mHypoE-46 neurons were washed with ice-cold PBS and lysed in NP-40 lysis buffer (Invitrogen Australia Pty Ltd, Mulgrave, VIC) containing a protease inhibitor cocktail, beta-glycerophosphate and phenylmethanesulfonyl fluoride (PMSF) (Sigma, Castle Hill, NSW). Cell lysates were centrifuged at 14000 rpm for 10 min at 4 °C. The supernatants were collected and protein concentrations were determined using the DC assay (Bio-Rad Laboratories, Gladesville, NSW) according to the manufacturer’s instructions. Equal amounts of protein (10 μg) were separated on 4–12% Bis-Tris gels (Bio-Rad Laboratories, Gladesville, NSW,) using SDS-PAGE. Following electrophoresis (120 V for 2 h), the proteins were transferred to polyvinylidene difluoride membranes (100 V for 1 h). Membranes were blocked in 5% bovine serum albumin (BSA), followed by incubation with the primary antibodies PTP1B (sc-1718, 1:500, Santa Cruz Biotechnology Inc, Dallas, TX) in 1% BSA overnight at 4 °C. […] The bands corresponding to the proteins of interest were scanned and densitometrically analysed using the automatic imaging analysis system Quantity One (Bio-Rad Laboratories, Gladesville, NSW). All quantitative analyses were normalised to β-actin.

[7] = pNPP assay, 25 °C, read-out: IC50 TCPTP

Molecule	pIC50 [1, 7]	pIC50 [1]	Fold changes (TCPTP IC50 / PTP1B IC50) [1] [fold]	Km value of PTP1B in presence of compound [2]	Vmax value of PTP1B in presence of compound [2]	mode of inhibition of PTP1B [2]	pKi [3]	pIC50 [4]	mode of inhibition of PTP1B (literature) [4]	further results
C=C(C)[C@@H]1CC[C@]2(CO)CC[C@]3(C)[C@H](CC[C@@H]4[C@@]5(C)CC[C@H](O)C(C)(C)[C@@H]5CC[C@]43C)[C@@H]12 [Betulin, betulin]	–	3.93	7	altered Km value	decreased Vmax value	mixed-type inhibition	4.82	4.82	–	–
C=C(C)[C@@H]1CC[C@]2(C)CC[C@]3(C)[C@H](CC[C@@H]4[C@@]5(C)CCC(=O)C(C)(C)[C@@H]5CC[C@]43C)[C@@H]12 [Lupenone, lupenone]	4.04	–	6	–	–	–	–	4.86	non-competitive inhibitors	–
C=C(C)[C@@H]1CC[C@]2(C)CC[C@]3(C)[C@H](CC[C@@H]4[C@@]5(C)CC[C@H](O)C(C)(C)[C@@H]5CC[C@]43C)[C@@H]12 [Lupeol, lupeol]	–	3.90	22	–	–	–	5.25	5.25	non-competitive inhibitor	inhibition of PTP1B enzyme activity ([5]; lupeol 28 μM, 10 h after TNFα 8 h): significantly inhibited; inhibition at 28 µM ([5]; lupeol 28 μM, 10 h after TNFα 8 h, read-out: inhibition of PTP1B enzyme activity): 35%; PTP1B protein expression ([6]; lupeol 28 μM): slightly decreased; also recorded: do not significantly decrease
TNFα	–	–	–	–	–	–	–	–	–	increase of PTP1B activity ([5]; TNFα 20 ng/ml, 8 h): 1.5 fold; increase of PTP1B expression ([6]; TNFα 20 ng/ml, 8 h): 1.75 fold

Now from value to molecule, other results behind:

pIC50 [1, 7]	Molecule	pIC50 [1]	Fold changes (TCPTP IC50 / PTP1B IC50) [1] [fold]	Km value of PTP1B in presence of compound [2]	Vmax value of PTP1B in presence of compound [2]	mode of inhibition of PTP1B [2]	pKi [3]	pIC50 [4]	mode of inhibition of PTP1B (literature) [4]	further results
3.91	C=C(C)[C@@H]1CC[C@]2(C(=O)O)CC[C@]3(C)[C@H](CC[C@@H]4[C@@]5(C)CC[C@H](O)C(C)(C)[C@@H]5CC[C@]43C)[C@@H]12 [Betulinic acid, betulinic acid]	–	81	constant Km value	decreased Vmax value	non-competitive inhibitor	–	–	–	inhibition of PTP1B enzyme activity ([5]; betulinic acid 7.5 μM, 10 h after TNFα 8 h): significantly inhibited; inhibition at 7.5 µM ([5]; betulinic acid 7.5 μM, 10 h after TNFα 8 h, read-out: inhibition of PTP1B enzyme activity): 35%; PTP1B protein expression ([6]; betulinic acid 7.5 μM): slightly decreased; also recorded: do not significantly decrease; pKi ([3]; IC50-to-Ki converter, [E] 0.01, [S] 20000 µM, read-out: Constant of inhibition [Ki]): 5.82
4.20	CCc1oc2cc(S(=O)(=O)Nc3ccc(S(=O)(=O)Nc4nccs4)cc3)ccc2c1C(=O)c1cc(Br)c(O)c(Br)c1 [Compound 3, reference compound]	–	–	–	–	–	–	–	–	–
